{"source": "patent US20200268768A1", "about": "“CENICRIVIROC COMBINATION THERAPY FOR THE TREATMENT OF FIBROSIS” (Tobira Therapeutics, Inc., priority 2015, published 2020)", "key": {"[1]": {"tested_on": "STAM mouse model of Non-alcoholic Steatohepatitis", "assay": "STAM mouse model of NASH, anti-HCC effects at week 18", "settings": "for Mice that died (survival analysis): 6 to 18 weeks; for Body weight / CD31-positive area / Liver weight / Liver-to-body weight ratio / Maximum diameter of visible tumor nodules / Number of visible tumor nodules: mean ± SD", "description": "Group 1-Vehicle: Eighteen NASH mice were orally administered vehicle at a volume of 10 mL/kg twice daily (9:00 and 19:00) from 6 weeks of age."}, "[2]": {"assay": "Chronic (3- and 9-month) monkey toxicity studies", "assay_type": "in vivo"}, "[3]": {"tested_on": "thioacetamide (TAA)-induced hepatic fibrosis", "assay": "Rat model of thioacetamide-induced liver fibrosis and cirrhosis", "assay_type": "in vivo, Sprague-Dawley rats", "settings": "for Reduction of ca-SMA / Reduction of collagen type 1 protein levels / Reduction of fibrosis by collagen morphometry: first 8 weeks", "description": "Fibrosis was induced in male Sprague-Dawley rats by intraperitoneal administration of TAA 150 mg/kg 3 times/week for 8 weeks. […] Biochemical, gene expression and histologic evaluations of the liver were conducted."}, "[4]": {"assay": "Tissue distribution in rodents", "assay_type": "in vivo", "excerpt": "Infiltration of various immune cell populations, resulting in inflammation, is a central pathogenic feature following acute- and chronic liver injury. Chronic liver inflammation leads to continuous hepatocyte injury which can lead to fibrosis, cirrhosis, ESLD, and HCC. Interactions between intra-hepatic immune cells lead to increased activation and migration of Kupffer cells and HSCs and are critical events for developing liver fibrosis. Additionally, there is increasing evidence of the role of CCR2 and CCR5 in the pathogenesis of liver fibrosis. These members of the C-C chemokine family are expressed by pro-fibrogenic cells including pro-inflammatory monocytes and macrophages, Kupffer cells, and HSCs. CCR2 signaling plays an important role in the pathogenesis of renal fibrosis through regulation of bone marrow-derived fibroblasts. CCR2- and CCR5-positive monocytes as well as CCR5-positive T lymphocytes are attracted by locally released MCP-1 and RANTES, and can contribute to chronic interstitial inflammation in the kidney. […] Disruption of the intestinal microbiota and its downstream effects on the gut-liver axis both play an important role in metabolic disorders such as obesity, non-alcoholic fatty liver disease (NAFLD) and non-alcoholic steatohepatitis (NASH)."}, "[5]": {"settings": "CVC-high 100 mg/kg/day oral, week 18"}, "[6]": {"settings": "CVC-high 100 mg/kg/day oral, week 18, listed as Cenicriviroc"}, "[7]": {"settings": "CVC-low 20 mg/kg/day oral, week 18"}, "[8]": {"settings": "CVC-low 20 mg/kg/day oral, week 18, listed as Cenicriviroc"}, "[9]": {"settings": "Group 1a: CVC 30 mg/kg/day concurrently with TAA"}, "[10]": {"settings": "Group 1b: CVC 100 mg/kg/day concurrently with TAA"}}, "data": [{"smiles": "CCCCOCCOc1ccc(-c2ccc3c(c2)C=C(C(=O)Nc2ccc([S@@+]([O-])Cc4cncn4CCC)cc2)CCCN3CC(C)C)cc1", "note": "[CVC, (S)-8-[4-(2-Butoxyethoxy)phenyl]-1-isobutyl-N-(4-{[(1-propyl-1H-imidazol-5-yl)methyl]sulfinyl}phenyl)-1,2,3,4-tetrahydro-1-benzazocine-5-carboxamide]", "values": [{"measurement": "Effect on NASH-derived HCC", "setting": "[1]; CVC treatment groups, week 18", "value": "not observed"}, {"measurement": "Mice that died (survival analysis)", "setting": "[1]; CVC-high 100 mg/kg/day oral", "value": "Five out of twelve"}, {"measurement": "Mice with GS-positive nodules", "setting": "[1]; [5]", "value": "seven out of seven"}, {"measurement": "Mice with HCC lesions (HE staining)", "setting": "[1]; [5]", "value": "six out of seven"}, {"measurement": "Body weight", "setting": "[1]; [5]", "value": "20.8 ± 2.7", "unit": "g"}, {"measurement": "CD31-positive area", "setting": "[1]; [5]", "value": "3.68±1.37", "unit": "%"}, {"measurement": "Liver weight", "setting": "[1]; [5]", "value": "1817 ± 446", "unit": "mg"}, {"measurement": "Liver-to-body weight ratio", "setting": "[1]; [5]", "value": "8.8±2.3", "unit": "%"}, {"measurement": "Maximum diameter of visible tumor nodules", "setting": "[1]; [5]", "value": "5.3±5.1", "unit": "mm"}, {"measurement": "Number of visible tumor nodules", "setting": "[1]; [5]", "value": "3.6±2.5"}, {"measurement": "Body weight", "setting": "[1]; [6]", "value": "20.8 ± 2.7", "unit": "g"}, {"measurement": "CD31-positive area", "setting": "[1]; [6]", "value": "3.68 ± 1.37", "unit": "%"}, {"measurement": "Liver weight", "setting": "[1]; [6]", "value": "1817 ± 446", "unit": "mg"}, {"measurement": "Liver-to-body weight ratio", "setting": "[1]; [6]", "value": "8.8 ± 2.3", "unit": "%"}, {"measurement": "Maximum diameter of visible tumor nodules", "setting": "[1]; [6]", "value": "5.3 ± 5.1", "unit": "mm"}, {"measurement": "Number of visible tumor nodules", "setting": "[1]; [6]", "value": "3.6 ± 2.5"}, {"measurement": "Mice that died (survival analysis)", "setting": "[1]; CVC-low 20 mg/kg/day oral", "value": "Six out of twelve"}, {"measurement": "Mice with GS-positive nodules", "setting": "[1]; [7]", "value": "five out of six"}, {"measurement": "Mice with HCC lesions (HE staining)", "setting": "[1]; [7]", "value": "five out of six"}, {"measurement": "Body weight", "setting": "[1]; [7]", "value": "22.9 ± 3.5", "unit": "g"}, {"measurement": "CD31-positive area", "setting": "[1]; [7]", "value": "1.47±1.10", "unit": "%"}, {"measurement": "Liver weight", "setting": "[1]; [7]", "value": "1837 ± 410", "unit": "mg"}, {"measurement": "Liver-to-body weight ratio", "setting": "[1]; [7]", "value": "8.3±2.8", "unit": "%"}, {"measurement": "Maximum diameter of visible tumor nodules", "setting": "[1]; [7]", "value": "4.8±5.4", "unit": "mm"}, {"measurement": "Number of visible tumor nodules", "setting": "[1]; [7]", "value": "1.5±1.9"}, {"measurement": "Body weight", "setting": "[1]; [8]", "value": "22.9 ± 3.5", "unit": "g"}, {"measurement": "CD31-positive area", "setting": "[1]; [8]", "value": "1.47 ± 1.10", "unit": "%"}, {"measurement": "Liver weight", "setting": "[1]; [8]", "value": "1837 ± 410", "unit": "mg"}, {"measurement": "Liver-to-body weight ratio", "setting": "[1]; [8]", "value": "8.3 ± 2.8", "unit": "%"}, {"measurement": "Maximum diameter of visible tumor nodules", "setting": "[1]; [8]", "value": "4.8 ± 5.4", "unit": "mm"}, {"measurement": "Number of visible tumor nodules", "setting": "[1]; [8]", "value": "1.5 ± 1.9"}, {"measurement": "Plasma MCP-1 levels over controls", "setting": "[2]; 1000 mg/kg/day, chronic (3- and 9-month) monkey toxicity studies", "value": "~5", "unit": "fold"}, {"measurement": "Inflammation in clinical pathology parameters or any tissue, including the liver, by microscopic evaluation", "setting": "[2]; high dose of 1000 mg/kg/day", "value": "No indication of inflammation"}, {"measurement": "Reduction of ca-SMA", "setting": "[3]; [9]", "value": 17, "unit": "%"}, {"measurement": "Reduction of collagen type 1 protein levels", "setting": "[3]; [9]", "value": 30, "unit": "%"}, {"measurement": "Reduction of fibrosis by collagen morphometry", "setting": "[3]; [9]", "value": 49, "unit": "%"}, {"measurement": "Reduction of ca-SMA", "setting": "[3]; [10]", "value": 22, "unit": "%"}, {"measurement": "Reduction of collagen type 1 protein levels", "setting": "[3]; [10]", "value": 12, "unit": "%"}, {"measurement": "Reduction of fibrosis by collagen morphometry", "setting": "[3]; [10]", "value": 38, "unit": "%"}, {"measurement": "Reduction in collagen", "setting": "[3]; Group 2a: CVC 30 mg/kg/day during Weeks 4-8 (emerging fibrosis)", "value": 36, "unit": "%"}, {"measurement": "Effect on fibrogenic gene expression or fibrosis", "setting": "[3]; Group 3: treatment Weeks 8-12, cirrhosis present", "value": "no significant effect of CVC on fibrogenic gene expression or fibrosis"}, {"measurement": "Tissue distribution", "setting": "[4]", "value": "high distribution in the liver, mesenteric lymph node, and intestine"}]}]}
